As a reminder, the viability is a read-out of living cells in per cent, often relative to untreated cells.

Structures are written as SMILES.

The source of these data is PMC12040169 (PLOS Biology, 2025).

The nature of this series: in vitro. To be noted: human, hela cells, % viability.
Regarding `COc1cccc(CNC2CC2)c1OCc1ccccc1` [CBK270009C], the viability at 28.5 h, 10 µM was found to be 90.6%.
With `COc1ccc(NC(=O)CSc2cnn[nH]2)cc1OC` [CBK270010] the figure was 102%; with `Cc1cc(CNC(=O)c2ccc3c(c2)OCO3)c2ccccc2n1` [CBK270014], 72.1%; with `N#Cc1ccccc1NC(=O)CSc1nc2cc(Cl)ccc2[nH]1` [CBK270019], 99.4%.
Consider `O=C(Cn1cnc2ccccc2c1=O)Nc1cccc(-c2cnc3ccccc3n2)c1` [CBK270020], for which the viability at 28.5 h, 10 µM came to 83.7%.
On to `CC(=O)c1c(C)nn(C(C)CC(=O)Nc2ccc(Cl)c(Cl)c2)c1C` (stereo not drawn) [CBK270021], for which the viability at 28.5 h, 10 µM is 87.3%.
Then `O=C(CSc1cnn[nH]1)Nc1ccc(F)cc1` [CBK270024], with 89.6%; and `COc1cc(CNCc2cccnc2)cc(Cl)c1OCc1cccs1` [CBK270026C], with 96.2%.
As for `CCOc1cc(CNCc2ccc(C(=O)O)cc2)ccc1OC` [CBK270029C], the viability at 28.5 h, 10 µM came to 89.7%.
Then `Cn1c(=O)c2[nH]c(N3CCCNCC3)nc2n(C)c1=O` [CBK270030], with 97%; and `CC(=O)Nc1cccc(C(=O)N2CCN(Cc3ccc4c(c3)OCO4)CC2)c1` [CBK270031], with 89.2%; and `CCOc1ccc(S(=O)(=O)N(C)CC(=O)O)cc1` [CBK270032], with 90.4%.
Regarding `Clc1ccc(OCc2nnn[nH]2)c(C2CCCCC2)c1` [CBK270035], the viability at 28.5 h, 10 µM is 103%.
As to `CCC(Oc1ccc(C)cc1)C(=O)Nc1ccc(S(N)(=O)=O)cc1` (stereo not drawn) [CBK270036], the viability at 28.5 h, 10 µM turned out to be 90.5%.
On to `COCC(C)NS(=O)(=O)c1cc(C)ccc1OC` (stereo not drawn) [CBK270037], for which the viability at 28.5 h, 10 µM amounted to 85.6%.
For the compound `Cc1[nH]c2ccccc2c1C(=O)C(=O)Nc1sc(C)c(C)c1C#N` [CBK270038], the viability at 28.5 h, 10 µM was found to be 85.9%.
For the compound `Cc1cc(C)n2nc(NC(=O)C(C)Oc3ccccc3)nc2n1` (stereo not drawn) [CBK270039], the viability at 28.5 h, 10 µM came to 89.9%.
With `N#Cc1c(NC(=O)CCn2cnnn2)sc2c1CCC2` [CBK270041] the figure was 93.5%.
With `O=C(O)CCCn1cc(NC(=O)c2ccc(Br)o2)cn1` [CBK270042] the figure was 106%.
In the case of `CSc1nsc(SCC(=O)Nc2ccc3c(c2)OCO3)n1` [CBK270044], the viability at 28.5 h, 10 µM is 88.6%.
Then `CCOc1ccc2ccccc2c1CNCCSc1nnnn1C` [CBK270046C], with 90.6%; and `Cc1ccc2nc(CSc3ncnc4sc(C)cc34)[nH]c2c1` [CBK270047], with 97.1%; and `CCC(C)(C)C1CCc2c(sc(NC(=O)CN3CCOCC3)c2C#N)C1` (stereo not drawn) [CBK270048], with 89.4%.
In the case of `O=C(O)CCCn1cc(NC(=O)c2cccc(F)c2)cn1` [CBK270051], the viability at 28.5 h, 10 µM amounted to 91.4%.
Regarding `COc1ccc(C(=O)Nc2cnn(CCCC(=O)O)c2)cc1` [CBK270052], the viability at 28.5 h, 10 µM was 89.7%.
`COc1cccc(C(=O)Nc2ccc(-c3noc(-c4ccccn4)n3)cc2)c1` [CBK270055]: the viability at 28.5 h, 10 µM worked out at 110%.
Take `O=C(NCCN1CCOCC1)N(c1ccccc1)c1ccccc1` [CBK270057]: the viability at 28.5 h, 10 µM turned out to be 92.8%.
With `Clc1ccc(COc2cccc(CNCc3ccccn3)c2)c(Cl)c1` [CBK270060C] the figure was 88.8%.
Take `N#Cc1ccc(Cn2cc(C(=O)C(N)=O)c3ccccc32)cc1` [CBK270062]: the viability at 28.5 h, 10 µM came out at 84.2%.
As for `COc1nc2ccccc2nc1CCC(=O)NC(C)c1ccccc1` (stereo not drawn) [CBK270065], the viability at 28.5 h, 10 µM worked out at 100%.
As for `COc1ccc2oc(=O)c(C(=O)Nc3cccc(O)c3)cc2c1` [CBK270070], the viability at 28.5 h, 10 µM came out at 87.3%.
Turning to `COc1ccc(CN2CCNC(=O)C2CC(=O)O)c(OC)c1` (stereo not drawn) [CBK270072], the viability at 28.5 h, 10 µM turned out to be 112%.
With `Cc1ccc(S(=O)(=O)c2ccccc2)cc1S(=O)(=O)NCc1ccncc1` [CBK270073], the viability at 28.5 h, 10 µM turned out to be 98.4%.
For the compound `Fc1ccc(CSc2nnc(-c3ccccn3)[nH]2)cc1` [CBK270074], the viability at 28.5 h, 10 µM was 85.8%.
Then `O=C(Nc1ccccc1C(=O)NCCN1CCOCC1)c1cccs1` [CBK270077], with 94.4%; and `O=C1CC(N2CCN(CCc3ccncc3)CC2)C(=O)N1c1ccc(Cl)cc1` (stereo not drawn) [CBK270078], with 85.6%; and `O=C(O)C1CC=CCC1C(=O)NCc1ccc(N2CCCC2=O)cc1` (stereo not drawn) [CBK270081], with 79.7%.
Then `COc1cc(CNCc2cccnc2)ccc1OCc1cccs1` [CBK270082C], with 86.7%.
With `C=CCNC(=O)c1ccccc1NC(=O)Cc1ccc(Cl)cc1` [CBK270086], the viability at 28.5 h, 10 µM was 101%.
With `O=C(O)CC1C(=O)NCCN1C1Cc2ccccc2C1` (stereo not drawn) [CBK270089] the figure was 88.2%; with `O=C(NCCO)C1CCCN(S(=O)(=O)c2ccc3ccccc3c2)C1` (stereo not drawn) [CBK270090], 83.7%; with `O=C(CCNS(=O)(=O)c1ccccc1)N1CCC(Cc2ccccc2)CC1` [CBK270091], 84.9%.
Consider `O=C(Nc1cccnc1)c1cc(S(=O)(=O)N2CCOCC2)ccc1Br` [CBK270101], for which the viability at 28.5 h, 10 µM worked out at 92.4%.
Then `Cc1cc(-c2nc3ncccc3o2)ccc1NC(=O)c1ccc2c(c1)OCCO2` [CBK270104], with 94.1%; and `COc1ccccc1-c1nnc(SCC(=O)N2CCN(c3ccccc3)CC2)[nH]1` [CBK270105], with 95.6%; and `Cc1nnc(SCc2cc(=O)[nH]c(N3CCN(C)CC3)n2)s1` [CBK270106], with 91.7%.
With `COc1cc(CNCc2ccccn2)ccc1OCc1ccccc1C` [CBK270108C], the viability at 28.5 h, 10 µM was found to be 89.3%.
With `CN(C)c1cccc(Oc2nc3c(c(=O)n(C)c(=O)n3C)n2C)c1` [CBK270109] the figure was 97.8%; with `CCC(=O)N1CCN(c2ccccc2NC(=O)c2ccc(C#N)cc2F)CC1` [CBK270110], 81.8%; with `CS(=O)(=O)N(CC(=O)NC1CCCCCCC1)c1ccccc1` [CBK270112], 96.1%.
With `O=C(CSc1nc2cccnc2[nH]1)Nc1cccc(F)c1` [CBK270113] the figure was 89.3%; with `O=C(O)CC1C(=O)NCCN1Cc1ccccc1Cl` (stereo not drawn) [CBK270114], 93%.
Then `OCCC1CNCCN1CC1CCCCC1` (stereo not drawn) [CBK270115], with 97.2%.
Consider `Cc1occc1C(=O)Nc1cnn(CCCC(=O)O)c1` [CBK270116], for which the viability at 28.5 h, 10 µM stood at 89.4%.
`O=C(NCCN1CCOCC1)c1ccc(NS(=O)(=O)c2ccccc2)cc1` [CBK270118]: the viability at 28.5 h, 10 µM stood at 102%.
Then `O=C(O)CCCn1cc(NC(=O)Cc2ccccc2F)cn1` [CBK270119], with 96.3%; and `Nc1nncn1C(=O)c1ccccc1SCc1ccccc1` [CBK270120], with 88.9%.
For `CC(C)C(N)c1nnc(SCc2ccccc2Cl)o1` (stereo not drawn) [CBK270121C], the viability at 28.5 h, 10 µM is 92%.
As to `COc1ccc(Cl)cc1NC(=O)Cn1nc(-c2ccccc2)ccc1=O` [CBK270124], the viability at 28.5 h, 10 µM stood at 85.1%.
As for `COc1ccc(CNC(=O)C2CC(=O)N(c3ccc(O)cc3)C2)cc1` (stereo not drawn) [CBK270125], the viability at 28.5 h, 10 µM amounted to 96.8%.
